We go through four molecules from the NIST ThermoML archive (doi:10.1016/j.jct.2007.03.008).

Data set [1] can be described thus: refractive index (Na D-line) (dimensionless). The conditions noted are these: 298.15 K; 101.33 kPa; Liquid; Standard Abbe refractometry.
The conditions of data set [2]: Liquid; for mass density: 101.33 kPa.

± gives the expanded uncertainty stated by the source.

On to `ClCCCCCl` [1,4-dichlorobutane], for which, in data set [1], the refractive index came to 1.4519 ± 0.0007. Further, in data set [2] (298.15 K), the mass density is given as 1132.8 ± 0.2 kg/m3. The “vapor or sublimation pressure” value was 0.99 ± 0.16 kPa in data set [2] (298.15 K), 1.39 ± 0.16 kPa in data set [2] (308.15 K) and 2.13 ± 0.16 kPa in data set [2] (318.15 K).
Turning to `CCCCCl` [1-chlorobutane], the refractive index in data set [1] amounted to 1.3991 ± 0.0007. Further, the mass density in data set [2] (298.15 K, Vibrating tube method) worked out at 880.9 ± 0.1 kg/m3. Moreover, the “vapor or sublimation pressure” value in data set [2] (298.15 K) is recorded as 13.7 ± 0.4 kPa; in data set [2] (308.15 K), 21.32 ± 0.44 kPa; in data set [2] (318.15 K), 31.86 ± 0.51 kPa.
On to `ClCCCCl` [1,3-dichloropropane], for which the refractive index in data set [1] came to 1.4459 ± 0.0007. The mass density in data set [2] (298.15 K) worked out at 1181.4 ± 0.3 kg/m3. Moreover, the “vapor or sublimation pressure” value in data set [2] (298.15 K) was determined as 2.75 ± 0.16 kPa; in data set [2] (308.15 K), 4.48 ± 0.17 kPa; in data set [2] (318.15 K) it was 6.87 ± 0.18 kPa.
Regarding `O=C1CCCC1` [cyclopentanone], the refractive index in data set [1] is listed as 1.4347 ± 0.0007. Also, the mass density in data set [2] (298.15 K) worked out at 945.3 ± 0.2 kg/m3. Further, the “vapor or sublimation pressure” value amounted to 1.71 ± 0.32 kPa in data set [2] (298.15 K), 2.8 ± 0.33 kPa in data set [2] (308.15 K) and 4.4 ± 0.34 kPa in data set [2] (318.15 K).

One may read the refractive index as the speed of light in vacuum divided by its phase velocity in the sample. The mass density is the mass of a sample divided by its volume. In general, vapor or sublimation pressure refers to the pressure of vapour in equilibrium with the condensed phase.
